Experiments:
fascin = fascin (Homo sapiens (Human), UniProt Q16658); assay: High throughput fascin inhibition assay (actin bundling, F-actin imaging); type: biochemical
Method: A high throughput assay was developed to screen for fascin specific inhibitors. Purified polymerized F-actin with or without fascin were mixed and incubated to allow actin bundle formation. F-actin polymers were then bound to the poly-D-lysine coated plates. […] Four images were taken from each well and the average fiber length was analyzed for each tested compound.
Recombinant human fascin 1 was expressed as a GST fusion protein in BL21 Escherichia coli. One liter of 2YT medium with ampicillin was inoculated overnight with 3 mL of BL21/DE3 culture transformed with pGEX4T-fascin 1 plasmid and grown at 37° C. until attenuance at 600 nm (D600) reached about 0.8. The culture was then transferred to 18° C. and induced by the addition of 0.1 mM isopropyl β-d-thiogalactoside (IPTG) for 12 h. Bacteria were harvested by centrifugation at 5,000 r.p.m. for 10 min. The pellets were suspended in 30 mL of PBS supplemented with 0.2 mM PMSF, 1 mM DTT, 1% (v/v) Triton X-100 and 1 mM EDTA. After sonication, the suspension was centrifuged at 15,000 r.p.m. for 30 min to remove the cell debris. The supernatant was then incubated for 2 h with 4 mL of glutathione beads (Sigma) at 4° C. After extensive washing with PBS, the beads were resuspended in 10 mL of thrombin cleavage buffer (20 mM Tris-HCl pH 8.0, 150 mM NaCl, 2 mM CaCl2, 1 mM DTT). Fascin was released from the beads by incubation overnight with 40-100 U of thrombin at 4° C. After centrifugation, 0.2 mM PMSF was added to the supernatant to inactivate the remnant thrombin activity. The fascin protein was further concentrated with a Centricon® (Boca Raton, Fla.) filter to about 50 mg/mL.
About 150,000 compounds were screened. […] Purified fascin protein (15 μL of 0.5 μM) in buffer (100 mM KCl, 20 mM Tris/HCl, pH 7.5, 2 mM MgCl2) was added into each well of a clear 384-well flat-bottom plate (Corning) using Thermo Multidrop Combi (Fisher). Compound ([…]) solutions (5 mM stock) from various chemical libraries were pin transferred from stock 384-well plates into the 384-well assay plates and incubated for 30 min. Then 15 μL of 0.5 μM polymerized actin (in 100 mM KCl, 20 mM Tris/HCl, pH 7.5, 2 mM MgCl2, 1 mM DTT, 1 mM ATP) (Cytoskeleton Inc.) was added, resulting in 30 μM final concentration for chemical compounds. […] Mixed solution (25 μL) was then transferred to one well in a black 384-well plate coated with poly-D-lysine, and stained actin bundles or F-actin would stick onto the poly-D-lysine plates. After the plates were thoroughly washed with 1×PBS for 3 times, the plate was imaged using an ImageXpress Micro High Content Screening System (Molecular devices). The images were processed and analyzed using MetaMorph software. The raw image data for each well was background-corrected by subtraction of the median intensities across all wells on the plate. The background-corrected data was used to compute the bundle length for each well. The negative control wells were employed for quality control: multiple DMSO-only control wells (16 wells/plate) were present on each assay plate.

4T1 breast tumor cells = assay: Boyden-chamber cell migration assay, 4T1; type: cell-based
Method: Since fascin is critical for tumor cell migration, inhibitors of fascin should block tumor cell migration. Representative compounds were selected from the above-identified fascin inhibitors to test their abilities on inhibition of tumor cell migration (See Table 2). […] The cell lines used are listed below.
Exemplifying procedure: MDA-MB-231 cells (5×10^4) or 4T1 Cells (1×10^5) suspended in 100 μL starvation medium were added to the upper chamber of an insert (6.5 mm diameter, 8 μm pore size; Becton Dickson), and the insert was placed in a 24-well plate containing 700 μL starvation medium with or without 10% FBS. […] Migration assays were performed for 6 h and cells were fixed with 3.7% formaldehyde. Cells were stained with crystal violet staining solution, and cells on the upper side of the insert were removed with a cotton swab. Three randomly selected fields (×10 objectives) on the lower side of the insert were photographed, and the migrated cells were counted. Migration was expressed as average number of migrated cells in a field.

IC50 (fascin) [µM] | IC50 (4T1 breast tumor cells) [µM] | SMILES
0.734 | – | O=c1c2cnn(C3CCS(=O)(=O)C3)c2ncn1Cc1ccc(Cl)c(Cl)c1 [Compound 1, 5-(3,4-dichlorobenzyl)-1-(S,S,-dioxo-tetrahydrothiophen-3-yl)-1H-pyrazolo[3,4-d]pyrimidin-4(5H)-one]
2 | – | O=C(Nc1nn(Cc2ccc(C(F)(F)F)cc2)c2ccccc12)c1ccco1 [Compound 2, N-(1-(4-(trifluoromethyl)benzyl)-1H-indazol-3-yl)furan-2-carboxamide]
0.89 | ~20 | CCc1ccc(S(=O)(=O)Nc2cc(Sc3nc[nH]n3)c(O)c3ccccc23)cc1 [Compound 11, N-(3-(1H-1,2,4-triazol-3-ylthio)-4-hydroxynaphthalen-1-yl)-4-ethylbenzenesulfonamide]
1.2 | – | O=c1c2cnn(CCO)c2ncn1Cc1cccc(Cl)c1 [Compound 21, 5-(3-chlorobenzyl)-1-(2-hydroxyethyl)-1H-pyrazolo[3,4-d]pyrimidin-4(5H)-one]
3.4 | – | O=C(Cn1cnc2c(cnn2C2CCS(=O)(=O)C2)c1=O)Nc1cccc(C(F)(F)F)c1 [Compound 23, 2-(4-oxo-1-(S,S,-dioxo-tetrahydrothiophen-3-yl)-1H-pyrazolo[3,4-d]pyrimidin-5(4H)-yl)-N-(3-(trifluoromethyl)phenyl)acetamide]
4.3 | – | O=C(Cn1cnc2c(cnn2C2CCS(=O)(=O)C2)c1=O)NCc1ccc(F)cc1 [Compound 24, N-(4-fluorobenzyl)-2-(4-oxo-1-(S,S-dioxo-tetrahydrothiophen-3-yl)-1H-pyrazolo[3,4-d]pyrimidin-5(4H)-yl)acetamide]
4.6 | – | O=C(Cn1cnc2c(cnn2C2CCS(=O)(=O)C2)c1=O)NCc1ccc2c(c1)OCO2 [Compound 25, N-(benzo[d][1,3]dioxol-5-ylmethyl)-2-(4-oxo-1-(S,S-dioxo-tetrahydrothiophen-3-yl)-1H-pyrazolo[3,4-d]pyrimidin-5(4H)-yl)acetamide]
4.3 | – | O=C(Cn1cnc2c(cnn2C2CCS(=O)(=O)C2)c1=O)Nc1ccc(Cl)cc1 [Compound 26, N-(4-chlorophenyl)-2-(4-oxo-1-(S,S-dioxo-tetrahydrothiophen-3-yl)-1H-pyrazolo[3,4-d]pyrimidin-5(4H)-yl)acetamide]
~10 | – | O=C(Cn1cnc2c(cnn2C2CCS(=O)(=O)C2)c1=O)c1ccc2c(c1)OCCO2 [Compound 27, 5-(2-(2,3-dihydrobenzo[b][1,4]dioxin-6-yl)-2-oxoethyl)-1-(S,S-dioxo-tetrahydrothiophen-3-yl)-1H-pyrazolo[3,4-d]pyrimidin-4(5H)-one]
4.7 | – | Cc1ccc(C(=O)Cn2cnc3c(cnn3C3CCS(=O)(=O)C3)c2=O)c(C)c1 [Compound 28, 5-(2-(2,4-dimethylphenyl)-2-oxoethyl)-1-(S,S-dioxo-tetrahydrothiophen-3-yl)-1H-pyrazolo[3,4-d]pyrimidin-4(5H)-one]
3.7 | – | O=C(Cn1cnc2c(cnn2C2CCS(=O)(=O)C2)c1=O)c1ccc2c(c1)OCO2 [Compound 29, 5-(2-(benzo[d][1,3]dioxol-5-yl)-2-oxoethyl)-1-(S,S-dioxo-tetrahydrothiophen-3-yl)-1H-pyrazolo[3,4-d]pyrimidin-4(5H)-one]
2 | – | Cc1ccccc1-n1ncc2c(=O)n(Cc3ccc(Cl)c(Cl)c3)cnc21 [Compound 30, 5-(3,4-dichlorobenzyl)-1-o-tolyl-1H-pyrazolo[3,4-d]pyrimidin-4(5H)-one]
2.3 | – | Cc1cccc(-n2ncc3c(=O)n(Cc4ccc(Cl)c(Cl)c4)cnc32)c1C [Compound 31, 5-(3,4-dichlorobenzyl)-1-(2,3-dimethylphenyl)-1H-pyrazolo[3,4-d]pyrimidin-4(5H)-one]
2.1 | – | Cc1ccc(-n2ncc3c(=O)n(Cc4ccc(Cl)c(Cl)c4)cnc32)c(C)c1 [Compound 32, 5-(3,4-dichlorobenzyl)-1-(2,4-dimethylphenyl)-1H-pyrazolo[3,4-d]pyrimidin-4(5H)-one]

Continued, compound first:

SMILES | IC50 (fascin) [µM] | IC50 (4T1 breast tumor cells) [µM]
CNc1nc(-c2ccccc2)[n+](-c2ccccc2)s1 [Compound 5, N-methyl-2,3-diphenyl-1,2,4-thiadiazolium-5-amine] | 0.5 | 30
c1ccc(CNc2nc(-c3ccccc3)[n+](-c3ccccc3)s2)cc1 [Compound 6, N-benzyl-2,3-diphenyl-1,2,4-thiadiazolium-5-amine] | 5 | –
c1ccc(Nc2nc(-c3ccccc3)[n+](-c3ccccc3)s2)cc1 [Compound 7, N-phenyl-2,3-diphenyl-1,2,4-thiadiazolium-5-amine] | 2 | > 50
Cc1ccc(C)c(S(=O)(=O)Nc2cc(Sc3nc[nH]n3)c(O)c3ccccc23)c1 [Compound 8, N-(3-(1H-1,2,4-triazol-3-ylthio)-4-hydroxynaphthalen-1-yl)-2,5-dimethylbenzenesulfonamide] | 0.683 | 20
CCOc1ccc(S(=O)(=O)Nc2cc(Sc3nc[nH]n3)c(O)c3ccccc23)cc1 [Compound 9, N-(3-(1H-1,2,4-triazol-3-ylthio)-4-hydroxynaphthalen-1-yl)-4-ethoxybenzenesulfonamide] | 1.47 | > 20
Cc1cc(C)c(S(=O)(=O)Nc2cc(Sc3nc[nH]n3)c(O)c3ccccc23)cc1C [Compound 12, N-(3-(1H-1,2,4-triazol-3-ylthio)-4-hydroxynaphthalen-1-yl)-2,4,5-trimethylbenzenesulfonamide] | 0.539 | 16
O=C1C(Sc2nc[nH]n2)=C/C(=N/S(=O)(=O)c2ccccc2)c2ccccc21 [Compound 13, (Z)-N-(3-(1H-1,2,4-triazol-3-ylthio)-4-oxonaphthalen-1(4H)-ylidene)benzenesulfonamide] | 2 | > 30
O=S(=O)(Nc1cc(Sc2nc[nH]n2)c(O)c2ccccc12)c1ccc(Br)cc1 [Compound 14, N-(3-(1H-1,2,4-triazol-3-ylthio)-4-hydroxynaphthalen-1-yl)-4-bromobenzenesulfonamide] | 2.62 | ~25
Cc1ccc(S(=O)(=O)Nc2cc(Sc3nc[nH]n3)c(O)c3ccccc23)c(C)c1 [Compound 15, N-(3-(1H-1,2,4-triazol-3-ylthio)-4-hydroxynaphthalen-1-yl)-2,4-dimethylbenzenesulfonamide] | 2.7 | > 30
O=S(=O)(Nc1nc2ccc(Oc3ccccc3)cc2s1)c1cccc(Cl)c1 [Compound 16, 3-chloro-N-(6-phenoxybenzo[d]thiazol-2-yl)benzenesulfonamide] | ~4 | ~7
O=[N+]([O-])c1cccc(S(=O)(=O)Nc2nc3ccc(F)cc3s2)c1 [Compound 17, N-(6-fluorobenzo[d]thiazol-2-yl)-3-nitrobenzenesulfonamide] | ~4 | ~60
O=S(=O)(Nc1nc2ccc(F)cc2s1)c1cccc(Cl)c1Cl [Compound 18, 2,3-dichloro-N-(6-fluorobenzo[d]thiazol-2-yl)benzenesulfonamide] | ~13 | ~3
CC(=O)Nc1nc2ccc(Cl)cc2s1 [Compound 19, N-(6-chlorobenzo[d]thiazol-2-yl)acetamide] | ~2 | ~25
O=C(/C=C/c1ccccc1)Nc1nc2ccccc2s1 [Compound 20, N-(benzo[d]thiazol-2-yl)cinnamamide] | ~4 | ~60
